Results on 61 compounds are retold here after ChEMBL document CHEMBL1781889, “A chemometric study of the 5-HT(1A) receptor affinities presented by arylpiperazine compounds” (Eur J Med Chem, 2008).

This test addresses T1, 5-hydroxytryptamine receptor 1A (Homo sapiens, UniProt P08908).
T1 sequence (P08908 whole entry): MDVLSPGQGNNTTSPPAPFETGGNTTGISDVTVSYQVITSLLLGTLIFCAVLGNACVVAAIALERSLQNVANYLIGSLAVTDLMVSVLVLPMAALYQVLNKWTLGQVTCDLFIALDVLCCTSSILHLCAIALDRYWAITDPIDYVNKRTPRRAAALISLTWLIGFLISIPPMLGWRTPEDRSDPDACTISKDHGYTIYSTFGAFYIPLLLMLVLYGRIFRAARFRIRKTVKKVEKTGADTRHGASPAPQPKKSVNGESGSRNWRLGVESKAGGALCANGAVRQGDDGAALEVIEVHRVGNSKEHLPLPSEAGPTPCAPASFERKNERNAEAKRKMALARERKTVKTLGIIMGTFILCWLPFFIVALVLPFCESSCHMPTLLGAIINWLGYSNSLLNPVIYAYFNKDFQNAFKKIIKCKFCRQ
Description: Binding affinity to 5HT1A receptor.
Turning to `Cc1ccc(OC(CCN2CCN(c3ccc(Cl)cc3)CC2)c2ccccc2)cc1` (stereo unspecified), the inhibitory constant (Ki) is 1450 nM.

`COc1ccccc1N1CCN(CCC(=O)c2ccc3ccccc3c2)CC1` gave a Ki of 251 nM.

The compound `Cc1cc(C(=O)CCN2CCN(c3ccccc3O)CC2)c(C)s1` had an inhibition constant Ki of 7.59 nM.

Take `OC(CCN1CCN(c2ccc(Cl)cc2)CC1)c1cccs1` (stereo unspecified): the affinity corresponds to a Ki of 5010 nM.

With `COc1ccccc1N1CCN(CC/C(=N\O)c2ccsc2)CC1`, the affinity, expressed as Ki, was 6.46 nM.

The compound `COc1ccccc1N1CCN(CCC(=O)c2ccsc2)CC1` showed a Ki of 15.8 nM.

The compound `O=C(CCN1CCN(c2ccccc2O)CC1)c1csc2ccccc12` showed a Ki of 110 nM.

`O=C(CCN1CCN(c2ccccc2Cl)CC1)c1ccccc1` had a Ki of 182 nM. This Ki is about 1.7-fold higher than that of the compound before.

In turn, `Cc1cc(C(O)CCN2CCN(c3ccccc3O)CC2)c(C)s1` (stereo unspecified) had a Ki of 91.2 nM.

With `O=C(CCN1CCN(c2ncccn2)CC1)c1ccccc1`, affinity was put at a Ki of 120 nM.

`COc1ccccc1N1CCN(CCC(=O)c2ccc(-c3ccccc3)cc2)CC1` had a Ki of 3630 nM. Compared with the last compound, the Ki is about 30-fold higher.

The compound `COc1ccc(N2CCN(CCC(Oc3ccc(C(F)(F)F)cc3)c3ccccc3)CC2)cc1` (stereo unspecified) showed a Ki of 5010 nM. The Ki values of the last two compounds are within 1.5-fold of each other.

As to `COc1ccccc1N1CCN(CCC(Oc2ccc(C(F)(F)F)cc2)c2ccccc2)CC1` (stereo unspecified), the affinity, expressed as Ki, was 447 nM.

`O=C(CCN1CCN(c2ccc(Cl)cc2)CC1)c1cccs1` had a Ki of 5010 nM.

In turn, `OC(CCN1CCN(c2ccccn2)CC1)c1ccccc1` (stereo unspecified) gave a Ki of 155 nM.

`OC(CCN1CCN(c2ccc(Cl)cc2)CC1)c1ccc2ccccc2c1` (stereo unspecified) gave a Ki of 5010 nM. This Ki is about 32-fold higher than that of the compound before.

Consider `O=C(CCN1CCN(c2ccc(Cl)cc2)CC1)c1ccc2ccccc2c1`, for which the affinity, expressed as Ki, was 5010 nM.

Compound `O=C(CCN1CCN(c2ccccn2)CC1)c1ccccc1` gave a Ki of 50.1 nM.

`COc1ccc(C(O)CCN2CCN(c3ccccc3OC)CC2)cc1` (stereo unspecified): the Ki is 324 nM. This Ki lies about 6.5-fold higher than the previous one.

`COc1ccccc1N1CCN(CCC(O)c2ccccc2)CC1` (stereo unspecified) gave a Ki of 47.9 nM.

For the compound `O=C(CCN1CCN(c2cccc3ccccc23)CC1)c1ccsc1`, the affinity, expressed as Ki, was 34.7 nM. This Ki and that of the compound before are within 1.5-fold of each other.

In turn, `COc1cc(Cl)ccc1N1CCN(CCC(O)c2csc3ccccc23)CC1` (stereo unspecified) showed a Ki of 363 nM.

In turn, `FC(F)(F)c1ccc(OC(CCN2CCN(c3ccccc3Cl)CC2)c2ccccc2)cc1` (stereo unspecified) had a Ki of 5010 nM. This Ki is about 14-fold higher than that of the compound before.

In turn, `OC(CCN1CCN(c2ccccc2Cl)CC1)c1ccccc1` (stereo unspecified) had a Ki of 115 nM.

`COc1ccccc1N1CCN(CCC(=O)c2ccc([N+](=O)[O-])s2)CC1`: the affinity, expressed as Ki, was 339 nM.

The compound `Clc1ccc(N2CCN(CCC(Oc3ccc4c(c3)OCO4)c3ccccc3)CC2)cc1` (stereo unspecified) had a Ki of 550 nM.

`Fc1ccc(N2CCN(CCC(Oc3ccc(C(F)(F)F)cc3)c3ccccc3)CC2)cc1` (stereo unspecified) showed a Ki of 5010 nM.

Turning to `COc1ccccc1N1CCN(CC/C(=N\O)c2ccccc2)CC1`, the affinity corresponds to a Ki of 17.4 nM.

With `OC(CCN1CCN(c2ccccc2Cl)CC1)c1ccsc1` (stereo unspecified), the affinity, expressed as Ki, was 200 nM.

Turning to `O=C(CCN1CCN(c2ccccc2Cl)CC1)c1ccsc1`, the inhibition constant (Ki) was 200 nM.

For `COc1cc(F)ccc1N1CCN(CCC(=O)c2csc3ccccc23)CC1`, the Ki is 501 nM.

Compound `COc1ccccc1N1CCN(CCC(Oc2ccc(C(F)(F)F)cc2)c2ccsc2)CC1` (stereo unspecified) gave a Ki of 257 nM.

In the case of `COc1ccccc1N1CCN(CCC(=O)c2cc(C)sc2C)CC1`, the inhibitory constant (Ki) was 5.01 nM. Compared with the last compound, the Ki is about 51-fold lower.

Compound `COc1ccc(N2CCN(CCC(=O)c3ccccc3)CC2)cc1` gave a Ki of 5010 nM.

`COc1ccccc1N1CCN(CCC(=O)c2csc3ccccc23)CC1` had a Ki of 43.7 nM.

In turn, `Oc1ccccc1N1CCN(CCC(O)c2csc3ccccc23)CC1` (stereo unspecified) gave a Ki of 18.2 nM.

On to `FC(F)(F)c1ccc(OC(CCN2CCN(c3ncccn3)CC2)c2ccccc2)cc1` (stereo unspecified), for which the Ki was 1580 nM.

Consider `COc1ccccc1N1CCN(CCC(O)c2cccs2)CC1` (stereo unspecified), for which the Ki was 19.1 nM.

`COc1ccccc1N1CCN(CCC(Oc2ccc(C(F)(F)F)cc2)c2ccc(-c3ccccc3)cc2)CC1` (stereo unspecified) had a Ki of 5010 nM. This Ki lies about 260-fold higher than the previous one.

For the compound `O=C(CCN1CCN(c2cccc3ccccc23)CC1)c1csc2ccccc12`, the Ki was 100 nM.

As for `COc1ccccc1N1CCN(CCC(O)c2csc3ccccc23)CC1` (stereo unspecified), the affinity corresponds to a Ki of 20 nM. Compared with the last compound, the Ki is about 5-fold lower.

In the case of `O=[N+]([O-])c1ccc(N2CCN(CCC(O)c3ccccc3)CC2)cc1` (stereo unspecified), the Ki is 5010 nM.

As for `O=C(CCN1CCN(c2ccc(Cl)cc2)CC1)c1csc2ccccc12`, the Ki was 5010 nM.

In turn, `COc1ccccc1N1CCN(CCC(O)c2ccc3ccccc3c2)CC1` (stereo unspecified) gave a Ki of 417 nM.

As for `COc1ccccc1N1CCN(CCC(=O)c2ccc(C)s2)CC1`, the Ki was 17.4 nM.

The compound `COc1ccc(N2CCN(CCC(O)c3ccc(-c4ccccc4)cc3)CC2)cc1` (stereo unspecified) had a Ki of 851 nM.

Take `COc1ccccc1N1CCN(CCC(O)c2cc(C)sc2C)CC1` (stereo unspecified): the Ki is 12 nM.

Regarding `O=C(CCN1CCN(c2ccc(F)cc2)CC1)c1ccccc1`, the Ki is 794 nM.

The compound `OC(CCN1CCN(c2ccc(Cl)cc2)CC1)c1ccccc1` (stereo unspecified) gave a Ki of 794 nM.

Compound `COc1ccccc1N1CCN(CCC(O)c2ccc(C)s2)CC1` (stereo unspecified) gave a Ki of 33.9 nM.

As to `COc1ccccc1N1CCN(CCC(=O)c2cccs2)CC1`, the affinity, expressed as Ki, was 10 nM.

`OC(CCN1CCN(c2ccc(Cl)cc2)CC1)c1csc2ccccc12` (stereo unspecified) gave a Ki of 5010 nM.

In turn, `COc1ccccc1N1CCN(CCC(O)c2ccsc2)CC1` (stereo unspecified) showed a Ki of 50.1 nM.

Take `COc1ccc(C(CCN2CCN(c3ccccc3OC)CC2)Oc2ccc(C(F)(F)F)cc2)cc1` (stereo unspecified): the inhibition constant Ki is 1000 nM.

In turn, `COc1cc(Cl)ccc1N1CCN(CCC(=O)c2csc3ccccc23)CC1` showed a Ki of 501 nM. This Ki lies about 2-fold lower than the previous one.

`O=C(CCN1CCN(c2ccc([N+](=O)[O-])cc2)CC1)c1ccccc1` had a Ki of 5010 nM.

The compound `COc1cc(F)ccc1N1CCN(CCC(O)c2csc3ccccc23)CC1` (stereo unspecified) showed a Ki of 501 nM.

In the case of `O=C(CCN1CCN(c2ccc(Cl)cc2)CC1)c1ccccc1`, the Ki was 794 nM.

For the compound `O=[N+]([O-])c1ccc(N2CCN(CCC(Oc3ccc(C(F)(F)F)cc3)c3ccccc3)CC2)cc1` (stereo unspecified), affinity was put at a Ki of 5010 nM.

As to `Cc1cc(C(=O)CCN2CCN(c3cccc4ccccc34)CC2)c(C)s1`, the Ki is 100 nM.

Compound `COc1ccc(N2CCN(CCC(O)c3ccccc3)CC2)cc1` (stereo unspecified) had a Ki of 5010 nM. This Ki lies about 50-fold higher than the previous one.
